Assay results: patent US20150087627A1, “COMBINATION OF KINASE INHIBITORS AND USES THEREOF” (Intellikine LLC, priority 2011, published 2015)
pIC50: −log10 of the molar value. Like-named read-outs stand apart in the source and are kept apart here.

Key:
Assay type in all cases: biochemical
PI3K α (p110α/p85α) = target: T1, PI3K α (p110α/p85α) (Homo sapiens, UniProt P42336); assay: PI 3-Kinase (human) HTRF assay, PI3K α; settings: read-out: PI3K α IC50
T1 construct: purchased Upstate / Millipore Corporation

PI3K β (p110β/p85α) = target: T2, PI3K β (p110β/p85α) (Homo sapiens, UniProt P42338); assay: PI 3-Kinase (human) HTRF assay, PI3K β; settings: read-out: PI3K β IC50
T2 construct: purchased Upstate / Millipore Corporation

PI3K γ (p110γ) = target: T3, PI3K γ (p110γ) (Homo sapiens, UniProt P48736); assay: PI 3-Kinase (human) HTRF assay, PI3K γ; settings: read-out: PI3K γ IC50
T3 construct: purchased Upstate / Millipore Corporation

PI3K δ = target: T4, PI3K δ (Homo sapiens, UniProt O00329); assay: PI 3-Kinase (human) HTRF assay, PI3K δ; settings: read-out: PI3K δ IC50
T4 construct: purchased Upstate / Millipore Corporation
T4 sequence (O00329 whole entry): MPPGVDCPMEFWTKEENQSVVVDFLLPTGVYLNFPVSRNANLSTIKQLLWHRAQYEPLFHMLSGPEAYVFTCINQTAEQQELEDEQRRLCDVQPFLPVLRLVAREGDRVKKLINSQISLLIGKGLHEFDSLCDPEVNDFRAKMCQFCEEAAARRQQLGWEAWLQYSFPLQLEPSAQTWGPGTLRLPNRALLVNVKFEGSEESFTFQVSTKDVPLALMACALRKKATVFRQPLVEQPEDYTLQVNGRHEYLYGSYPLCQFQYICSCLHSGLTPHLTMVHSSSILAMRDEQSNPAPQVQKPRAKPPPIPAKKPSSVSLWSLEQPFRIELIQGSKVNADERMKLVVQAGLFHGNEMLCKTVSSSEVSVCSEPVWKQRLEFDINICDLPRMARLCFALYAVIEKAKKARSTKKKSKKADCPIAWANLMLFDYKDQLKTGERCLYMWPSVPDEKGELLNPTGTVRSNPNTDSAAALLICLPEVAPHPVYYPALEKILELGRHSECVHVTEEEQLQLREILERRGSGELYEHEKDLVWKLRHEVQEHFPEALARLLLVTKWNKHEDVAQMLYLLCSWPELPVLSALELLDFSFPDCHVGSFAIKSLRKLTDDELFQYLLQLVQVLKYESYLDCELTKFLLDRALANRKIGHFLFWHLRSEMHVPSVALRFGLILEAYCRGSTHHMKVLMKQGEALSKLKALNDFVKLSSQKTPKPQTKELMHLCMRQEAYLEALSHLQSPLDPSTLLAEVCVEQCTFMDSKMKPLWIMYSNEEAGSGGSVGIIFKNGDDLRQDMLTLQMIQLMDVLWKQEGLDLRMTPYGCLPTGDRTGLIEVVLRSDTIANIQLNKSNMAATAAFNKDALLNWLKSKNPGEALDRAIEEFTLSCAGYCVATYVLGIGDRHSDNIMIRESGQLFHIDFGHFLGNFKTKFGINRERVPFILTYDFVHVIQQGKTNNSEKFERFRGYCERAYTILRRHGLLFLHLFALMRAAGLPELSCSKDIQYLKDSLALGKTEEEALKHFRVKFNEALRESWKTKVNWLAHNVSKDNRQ
T4 sequence (P27986 whole entry partner): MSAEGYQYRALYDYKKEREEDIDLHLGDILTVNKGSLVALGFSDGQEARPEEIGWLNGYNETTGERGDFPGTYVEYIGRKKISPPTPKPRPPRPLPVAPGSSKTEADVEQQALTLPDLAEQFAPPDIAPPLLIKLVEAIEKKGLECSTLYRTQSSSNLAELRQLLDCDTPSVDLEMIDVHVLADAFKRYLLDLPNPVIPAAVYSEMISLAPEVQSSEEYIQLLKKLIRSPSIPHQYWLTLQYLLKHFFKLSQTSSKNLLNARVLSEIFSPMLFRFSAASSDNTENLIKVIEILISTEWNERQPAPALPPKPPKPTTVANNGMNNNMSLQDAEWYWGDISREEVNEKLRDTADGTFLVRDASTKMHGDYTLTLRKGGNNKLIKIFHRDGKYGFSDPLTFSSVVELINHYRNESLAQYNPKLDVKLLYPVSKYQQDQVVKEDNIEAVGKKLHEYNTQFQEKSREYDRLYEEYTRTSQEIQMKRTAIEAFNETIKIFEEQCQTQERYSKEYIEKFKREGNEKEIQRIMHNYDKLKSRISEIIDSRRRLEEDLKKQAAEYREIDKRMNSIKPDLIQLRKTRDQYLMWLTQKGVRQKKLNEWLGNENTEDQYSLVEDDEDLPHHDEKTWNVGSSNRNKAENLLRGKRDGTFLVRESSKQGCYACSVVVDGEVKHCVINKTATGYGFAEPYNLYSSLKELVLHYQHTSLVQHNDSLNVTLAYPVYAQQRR

T3 sequence (P48736 whole entry): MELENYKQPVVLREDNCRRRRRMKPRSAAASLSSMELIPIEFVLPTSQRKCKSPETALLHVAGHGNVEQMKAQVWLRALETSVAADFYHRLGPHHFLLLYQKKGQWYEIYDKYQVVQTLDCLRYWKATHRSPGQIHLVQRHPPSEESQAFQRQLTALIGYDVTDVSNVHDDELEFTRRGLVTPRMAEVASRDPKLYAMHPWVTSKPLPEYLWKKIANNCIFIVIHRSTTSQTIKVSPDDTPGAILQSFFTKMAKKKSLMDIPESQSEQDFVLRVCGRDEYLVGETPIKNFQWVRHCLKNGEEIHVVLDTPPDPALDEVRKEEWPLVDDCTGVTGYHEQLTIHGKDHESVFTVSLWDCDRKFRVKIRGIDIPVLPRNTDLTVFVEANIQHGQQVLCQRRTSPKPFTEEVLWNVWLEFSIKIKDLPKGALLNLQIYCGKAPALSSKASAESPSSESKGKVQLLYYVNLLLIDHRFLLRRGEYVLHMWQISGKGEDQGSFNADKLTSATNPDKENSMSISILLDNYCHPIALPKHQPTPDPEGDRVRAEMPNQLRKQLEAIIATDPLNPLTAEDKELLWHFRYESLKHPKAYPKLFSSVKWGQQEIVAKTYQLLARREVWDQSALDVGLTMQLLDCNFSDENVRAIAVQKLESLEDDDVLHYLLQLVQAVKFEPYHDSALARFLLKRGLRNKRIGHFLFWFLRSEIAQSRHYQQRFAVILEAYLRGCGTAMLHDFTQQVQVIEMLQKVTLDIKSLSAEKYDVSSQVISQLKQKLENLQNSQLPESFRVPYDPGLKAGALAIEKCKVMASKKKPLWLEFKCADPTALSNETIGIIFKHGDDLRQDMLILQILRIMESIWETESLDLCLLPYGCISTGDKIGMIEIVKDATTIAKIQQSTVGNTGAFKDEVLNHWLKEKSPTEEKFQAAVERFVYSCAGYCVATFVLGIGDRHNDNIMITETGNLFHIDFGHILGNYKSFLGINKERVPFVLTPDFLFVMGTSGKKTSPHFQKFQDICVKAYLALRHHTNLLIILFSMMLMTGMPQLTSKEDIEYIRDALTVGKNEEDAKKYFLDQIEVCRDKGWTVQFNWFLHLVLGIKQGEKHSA
T1 sequence (P42336 whole entry): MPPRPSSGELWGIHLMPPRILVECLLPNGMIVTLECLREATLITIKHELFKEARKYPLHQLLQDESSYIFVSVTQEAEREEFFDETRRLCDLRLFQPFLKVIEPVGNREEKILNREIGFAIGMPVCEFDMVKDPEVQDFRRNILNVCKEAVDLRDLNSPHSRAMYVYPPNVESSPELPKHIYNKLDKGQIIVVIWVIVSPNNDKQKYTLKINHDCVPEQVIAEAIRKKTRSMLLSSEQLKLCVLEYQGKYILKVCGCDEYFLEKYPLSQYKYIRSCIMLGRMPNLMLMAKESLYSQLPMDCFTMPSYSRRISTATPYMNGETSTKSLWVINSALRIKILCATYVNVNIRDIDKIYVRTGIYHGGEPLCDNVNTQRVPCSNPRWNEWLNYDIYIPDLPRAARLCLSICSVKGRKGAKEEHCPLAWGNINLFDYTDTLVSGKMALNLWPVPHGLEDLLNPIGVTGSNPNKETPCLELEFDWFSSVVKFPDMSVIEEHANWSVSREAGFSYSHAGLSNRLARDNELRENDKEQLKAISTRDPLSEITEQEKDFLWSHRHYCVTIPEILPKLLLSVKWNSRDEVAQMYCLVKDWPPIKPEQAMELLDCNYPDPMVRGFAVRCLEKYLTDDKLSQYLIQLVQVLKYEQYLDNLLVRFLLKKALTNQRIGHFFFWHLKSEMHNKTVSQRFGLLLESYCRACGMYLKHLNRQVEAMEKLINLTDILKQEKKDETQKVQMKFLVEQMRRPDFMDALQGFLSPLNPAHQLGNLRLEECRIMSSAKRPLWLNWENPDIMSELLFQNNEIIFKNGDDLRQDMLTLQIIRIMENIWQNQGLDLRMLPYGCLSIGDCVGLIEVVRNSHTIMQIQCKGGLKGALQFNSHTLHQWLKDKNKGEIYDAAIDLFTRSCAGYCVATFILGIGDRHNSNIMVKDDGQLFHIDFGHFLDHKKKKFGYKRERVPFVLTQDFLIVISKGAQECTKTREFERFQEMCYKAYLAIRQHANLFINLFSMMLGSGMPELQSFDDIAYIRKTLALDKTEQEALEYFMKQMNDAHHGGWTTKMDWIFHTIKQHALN
T1 sequence (P27986 whole entry partner): as the sequence (P27986 whole entry partner) above
T2 sequence (P42338 whole entry): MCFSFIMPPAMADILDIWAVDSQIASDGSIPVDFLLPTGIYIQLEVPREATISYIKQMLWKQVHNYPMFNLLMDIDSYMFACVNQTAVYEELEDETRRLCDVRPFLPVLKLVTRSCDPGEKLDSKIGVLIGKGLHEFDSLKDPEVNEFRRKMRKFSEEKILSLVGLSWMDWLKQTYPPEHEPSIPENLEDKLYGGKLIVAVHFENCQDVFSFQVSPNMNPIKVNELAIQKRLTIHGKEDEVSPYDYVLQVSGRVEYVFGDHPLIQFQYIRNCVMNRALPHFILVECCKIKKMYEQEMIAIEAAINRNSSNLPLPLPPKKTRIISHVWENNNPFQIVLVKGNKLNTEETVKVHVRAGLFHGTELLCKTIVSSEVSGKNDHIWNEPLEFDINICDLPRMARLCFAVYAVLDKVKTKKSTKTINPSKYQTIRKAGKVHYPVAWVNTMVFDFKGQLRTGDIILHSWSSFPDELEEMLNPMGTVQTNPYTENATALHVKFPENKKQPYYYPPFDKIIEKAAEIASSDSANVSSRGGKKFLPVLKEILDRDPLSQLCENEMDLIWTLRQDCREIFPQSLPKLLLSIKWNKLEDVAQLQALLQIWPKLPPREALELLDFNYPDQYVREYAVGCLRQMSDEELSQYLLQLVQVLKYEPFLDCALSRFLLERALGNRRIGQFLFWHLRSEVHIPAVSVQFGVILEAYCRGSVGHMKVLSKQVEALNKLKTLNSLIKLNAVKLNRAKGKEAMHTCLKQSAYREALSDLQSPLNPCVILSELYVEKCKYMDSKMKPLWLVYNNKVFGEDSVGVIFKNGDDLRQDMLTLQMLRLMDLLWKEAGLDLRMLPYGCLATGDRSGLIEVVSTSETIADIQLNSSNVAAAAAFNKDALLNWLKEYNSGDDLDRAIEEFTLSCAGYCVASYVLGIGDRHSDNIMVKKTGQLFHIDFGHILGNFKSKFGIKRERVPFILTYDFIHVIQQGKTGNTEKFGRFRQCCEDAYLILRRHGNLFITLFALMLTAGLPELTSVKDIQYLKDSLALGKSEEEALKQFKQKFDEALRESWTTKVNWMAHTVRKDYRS
T2 sequence (P27986 whole entry partner): as the sequence (P27986 whole entry partner) above

Structure (SMILES) | pIC50 (PI3K α (p110α/p85α)) | pIC50 (PI3K β (p110β/p85α)) | pIC50 (PI3K γ (p110γ)) | pIC50 (PI3K δ) | pIC50 (PI3K α (p110α/p85α); Table 4 (PI3K α inhibitors)) | pIC50 (PI3K β (p110β/p85α); Table 4 (PI3K α inhibitors)) | pIC50 (PI3K δ; Table 4 (PI3K α inhibitors)) | pIC50 (PI3K γ (p110γ); Table 4 (PI3K α inhibitors))
Nc1nsc2ccc(-c3ccc4nccc(-c5ccncc5)c4c3)cc12 [Compound 12] | < 5.00 | < 5.00 | < 5.00 | < 5.00 | – | – | – | –
Nc1nc2cc(-c3cc4nccc(-c5ccncc5)c4s3)ccc2o1 [Compound 14] | > 5.00 | < 5.00 | > 5.00 | < 5.00 | – | – | – | –
Nc1nc2cccc(-c3ccc4nccc(-c5ccncc5)c4c3)c2s1 [Compound 17] | > 7.00 | > 6.00 | > 7.00 | > 6.00 | – | – | – | –
Nc1noc2ccc(-c3ccc4nccc(-c5ccncc5)c4c3)cc12 [Compound 18] | > 5.00 | < 5.00 | > 5.00 | < 5.00 | – | – | – | –
CC(=O)Nc1cn2cc(-c3ccc4nccc(-c5ccncc5)c4c3)ccc2n1 [Compound 19] | < 5.00 | < 5.00 | < 5.00 | < 5.00 | – | – | – | –
CN1CCN(c2ccnc3ccc(-c4ccc5oc(N)nc5c4)cc23)CC1 [Compound 21] | > 6.00 | > 5.00 | > 5.00 | > 5.00 | – | – | – | –
CN1CCN(c2ncnc3ccc(-c4ccc5oc(N)nc5c4)cc23)CC1 [Compound 23] | > 7.00 | > 6.00 | > 7.00 | > 5.00 | – | – | – | –
Nc1nc2cc(-c3ccc4ncnc(NC5CCOCC5)c4c3)ccc2o1 [Compound 24] | > 7.00 | > 6.00 | > 7.00 | > 7.00 | – | – | – | –
Nc1nc2cc(-c3c[nH]c4nccc(-c5ccncc5)c34)ccc2o1 [Compound 25] | > 5.00 | < 5.00 | > 5.00 | < 5.00 | – | – | – | –
Nc1nc2cc(-c3ccc4nccc(CCN5CCOCC5)c4c3)ccc2o1 [Compound 27] | > 6.00 | – | > 7.00 | > 5.00 | – | – | – | –
Nc1nc2cc(-c3ccc4nccc(N5CCOCC5)c4c3)ccc2o1 [Compound 28] | > 7.00 | – | > 7.00 | > 6.00 | – | – | – | –
Nc1nc2cc(-c3ccc4ncnc(N5CCC(O)CC5)c4c3)ccc2o1 [Compound 29] | > 7.00 | – | > 7.00 | > 7.00 | – | – | – | –
CN1CCN(c2cc(-c3ccnc4ccc(-c5ccc6oc(N)nc6c5)cc34)ccn2)CC1 [Compound 30] | > 7.00 | – | > 7.00 | > 7.00 | – | – | – | –
Nc1nc2cc(-c3ccc4nccc(-c5cccnc5)c4c3)ccc2o1 [Compound 31] | > 7.00 | – | > 7.00 | > 7.00 | – | – | – | –
Nc1nc2cc(-c3ccc4nccc(NC5CCOCC5)c4c3)ccc2o1 [Compound 32] | > 5.00 | – | > 5.00 | < 5.00 | – | – | – | –
Nc1nc2cc(-c3ccc4nccc(NCCN5CCOCC5)c4c3)ccc2o1 [Compound 33] | > 7.00 | – | > 6.00 | > 6.00 | – | – | – | –
CN1CCC(Oc2ncnc3ccc(-c4ccc5oc(N)nc5c4)cc23)CC1 [Compound 34] | > 7.00 | – | > 6.00 | > 6.00 | – | – | – | –
Nc1nc2cc(-c3ccc4ncc(-c5cn[nH]c5)n4c3)ccc2o1 [Compound 38] | > 7.00 | – | > 7.00 | > 7.00 | – | – | – | –
CN1CCN(c2cc(-c3cnc4ccc(-c5ccc6oc(N)nc6c5)cn34)ccn2)CC1 [Compound 43] | > 7.00 | – | > 7.00 | > 7.00 | – | – | – | –

Structure (SMILES) | pIC50 (PI3K α (p110α/p85α)) | pIC50 (PI3K β (p110β/p85α)) | pIC50 (PI3K γ (p110γ)) | pIC50 (PI3K δ) | pIC50 (PI3K α (p110α/p85α); Table 4 (PI3K α inhibitors)) | pIC50 (PI3K β (p110β/p85α); Table 4 (PI3K α inhibitors)) | pIC50 (PI3K δ; Table 4 (PI3K α inhibitors)) | pIC50 (PI3K γ (p110γ); Table 4 (PI3K α inhibitors))
Nc1nc2cc(-c3ccc4ncn(C5CCOCC5)c4c3)ccc2o1 [Compound 48] | > 5.00 | < 5.00 | < 5.00 | < 5.00 | – | – | – | –
Nc1nc2cc(-c3ccc4ncc(-c5ccc(N6CCOCC6)nc5)n4c3)ccc2o1 [Compound 51] | > 7.00 | > 6.00 | > 6.00 | > 6.00 | – | – | – | –
Nc1nc2cc(-c3ccc4ncc(N5CCOCC5)n4c3)ccc2o1 [Compound 53] | > 5.00 | < 5.00 | < 5.00 | < 5.00 | – | – | – | –
CC(=O)N1CCC(n2cnc3ccc(-c4ccc5oc(N)nc5c4)cc3c2=O)CC1 [Compound 66] | > 5.00 | – | < 5.00 | < 5.00 | – | – | – | –
CS(=O)(=O)N1CCC(n2cnc3ccc(-c4ccc5oc(N)nc5c4)cc3c2=O)CC1 [Compound 67] | > 6.00 | – | < 5.00 | < 5.00 | – | – | – | –
CN1CCN([C@H]2CCN(c3cnc4ccc(-c5ccc6oc(N)nc6c5)cc4n3)C2)CC1 [Compound 381] | > 7.00 | > 6.00 | > 5.00 | – | – | – | – | –
Nc1nc2cc(-c3ccc4ncc(C(=O)N5CC(N6CC[C@@H](O)C6)C5)n4c3)ccc2o1 [Compound 470] | > 7.00 | > 5.00 | > 6.00 | – | – | – | – | –
O=C(c1cnc2ccc(-c3cnc4[nH]ncc4c3)cn12)N1CCOCC1 [Compound 492] | – | > 5.00 | > 5.00 | > 5.00 | – | – | – | –
Cc1ncc(-c2ccc3ncc(C(=O)N4CCOCC4)n3c2)c2cn[nH]c12 [Compound 530] | > 7.00 | < 5.00 | < 5.00 | – | – | – | – | –
O=C(c1cnc2ccc(-c3ccnc4[nH]ncc34)cn12)N1CCOCC1 [Compound 532] | – | < 5.00 | < 5.00 | < 5.00 | – | – | – | –
O=C(c1cnc2ccc(-c3cnc4cc[nH]c4c3)cn12)N1CCOCC1 [Compound 534] | – | < 5.00 | < 5.00 | < 5.00 | – | – | – | –
Cc1ncc(-c2ccc3ncc(C(=O)N4CCOCC4)n3c2)c2cc[nH]c12 [Compound 536] | – | < 5.00 | < 5.00 | < 5.00 | – | – | – | –
Cc1ncc(-c2ccc3ncc(C(=O)N4C5CCC4COC5)n3c2)c2cn[nH]c12 [Compound 538] | > 7.00 | < 5.00 | < 5.00 | – | – | – | – | –
Nc1nc2cc(-c3cnc4ccc(C(=O)N5CCOCC5)cn34)ccc2o1 [Compound 541] | < 5.00 | < 5.00 | – | < 5.00 | – | – | – | –
Nc1nc2cc(-c3ccc4ncc(N5CCOCC5)nc4n3)ccc2o1 [Compound 553] | – | – | – | – | > 7.00 | > 6.00 | < 5.00 | –
CCOC(=O)N1CCN(c2cnc3ccc(-c4ccc5oc(N)nc5c4)nc3n2)CC1 [Compound 557] | – | – | – | – | > 7.00 | > 6.00 | > 6.00 | –
CS(=O)(=O)N1CCN(C2CN(c3cnc4ccc(-c5ccc6oc(N)nc6c5)nc4n3)C2)CC1 [Compound 559] | – | – | – | – | > 7.00 | < 5.00 | – | > 6.00
CCOC(=O)N1CC=C(c2cnc3ccc(-c4ccc5oc(N)nc5c4)nc3n2)CC1 [Compound 560] | – | – | – | – | > 7.00 | – | – | > 7.00
Nc1nc2cc(-c3ccc4ncc(C5=CCOCC5)nc4n3)ccc2o1 [Compound 562] | – | – | – | – | > 7.00 | – | < 5.00 | > 7.00

Structure (SMILES) | pIC50 (PI3K α (p110α/p85α)) | pIC50 (PI3K β (p110β/p85α)) | pIC50 (PI3K γ (p110γ)) | pIC50 (PI3K δ) | pIC50 (PI3K α (p110α/p85α); Table 4 (PI3K α inhibitors)) | pIC50 (PI3K β (p110β/p85α); Table 4 (PI3K α inhibitors)) | pIC50 (PI3K δ; Table 4 (PI3K α inhibitors)) | pIC50 (PI3K γ (p110γ); Table 4 (PI3K α inhibitors))
C[C@@H]1COCCN1c1cnc2ccc(-c3ccc4oc(N)nc4c3)nc2n1 [Compound 565] | – | – | – | – | > 7.00 | – | – | > 7.00
C[C@H]1COCCN1c1cnc2ccc(-c3ccc4oc(N)nc4c3)nc2n1 [Compound 566] | – | – | – | – | > 7.00 | – | < 5.00 | > 7.00
C[C@H]1CN(C2CN(c3cnc4ccc(-c5ccc6oc(N)nc6c5)nc4n3)C2)CCN1C [Compound 572] | – | – | – | – | > 7.00 | < 5.00 | – | < 5.00
CN1CCN(c2cnc3ccc(-c4ccc5oc(N)nc5c4)nc3c2)CC1 [Compound 575] | – | – | – | – | > 7.00 | > 7.00 | – | > 6.00
CCN(CC)c1cnc2ccc(-c3ccc4oc(N)nc4c3)nc2n1 [Compound 577] | – | – | – | – | > 6.00 | < 5.00 | – | > 6.00
C[C@@H]1CN(c2cnc3ccc(-c4ccc5oc(N)nc5c4)nc3n2)CCN1 [Compound 578] | – | – | – | – | > 7.00 | > 7.00 | – | > 6.00
Nc1nc2cc(-c3ccc4ncc(N5CC6CCC(C5)O6)cc4n3)ccc2o1 [Compound 579] | – | – | – | – | – | – | – | > 6.00
C[C@@H](N)C(=O)N1CCN(c2cnc3ccc(-c4ccc5oc(N)nc5c4)nc3n2)CC1 [Compound 582] | – | – | – | – | > 7.00 | – | – | > 6.00
CC(C)N1CCN(c2cnc3ccc(-c4ccc5oc(N)nc5c4)nc3n2)CC1 [Compound 583] | – | – | – | – | > 7.00 | > 6.00 | – | > 6.00
CCOC(=O)N1CCN(c2cnc3ccc(-c4ccc5oc(N)nc5c4)nc3c2)CC1 [Compound 587] | – | – | – | – | > 7.00 | – | < 5.00 | > 7.00
Nc1nc2cc(-c3ccc4ncc(N5CCC(O)CC5)nc4n3)ccc2o1 [Compound 596] | – | – | – | – | > 7.00 | – | < 5.00 | > 7.00
C[C@@H]1CN(C2CN(c3cnc4ccc(-c5ccc6oc(N)nc6c5)nc4c3)C2)CCN1 [Compound 607] | – | – | – | – | > 7.00 | – | > 6.00 | > 6.00
Nc1nc2cc(-c3ccc4ncc(N5CCC(O)CC5)cc4n3)ccc2o1 [Compound 613] | – | – | – | – | > 7.00 | – | – | > 6.00
C[C@@H]1COCCN1C1CN(c2cnc3ccc(-c4ccc5oc(N)nc5c4)nc3c2)C1 [Compound 617] | – | – | – | – | > 7.00 | – | > 6.00 | > 7.00
C[C@H]1COCCN1C1CN(c2cnc3ccc(-c4ccc5oc(N)nc5c4)nc3c2)C1 [Compound 619] | – | – | – | – | > 7.00 | < 5.00 | < 5.00 | –
Nc1nc2cc(-c3ccc4ncc(N5CC(N6CCN(C7CC7)CC6)C5)cc4n3)ccc2o1 [Compound 621] | – | – | – | – | > 7.00 | – | – | > 6.00
CC(C)N1CCN(C2CN(c3cnc4ccc(-c5ccc6oc(N)nc6c5)nc4n3)C2)CC1 [Compound 628] | – | – | – | – | – | < 5.00 | < 5.00 | < 5.00
CN1CCN(c2ccc3ncc(-c4ccc5oc(N)nc5c4)cc3n2)CC1 [Compound 631] | – | – | – | – | – | – | < 5.00 | < 5.00
